This note sets out measurements from ChEMBL document CHEMBL3396996, “Catechol-based substrates of chalcone synthase as a scaffold for novel inhibitors of PqsD” (Eur J Med Chem, 2015).

Assay [1] addresses T1, 2-heptyl-4(1H)-quinolone synthase PqsD (Pseudomonas aeruginosa) (UniProt A0A0C7ACN7).
T1 sequence (whole entry): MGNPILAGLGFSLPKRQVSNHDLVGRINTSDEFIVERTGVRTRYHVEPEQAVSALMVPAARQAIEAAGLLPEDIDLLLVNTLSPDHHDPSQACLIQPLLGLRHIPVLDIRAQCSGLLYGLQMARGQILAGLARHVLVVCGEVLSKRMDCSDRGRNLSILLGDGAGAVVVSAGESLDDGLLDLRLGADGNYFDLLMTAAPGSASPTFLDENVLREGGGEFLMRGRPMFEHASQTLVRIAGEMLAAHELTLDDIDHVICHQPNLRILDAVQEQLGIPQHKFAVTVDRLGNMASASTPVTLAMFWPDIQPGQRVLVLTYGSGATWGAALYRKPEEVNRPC
Put plainly: Inhibition of Pseudomonas aeruginosa recombinant PqsD expressed in Escherichia coli BL21 (lambdaDE3) using ACoA/beta-ketodecanoic acid as substrate at 50 uM after 10 mins.

The subject of assay [2] is Pseudomonas aeruginosa PA14. Put plainly: Inhibition of Pseudomonas aeruginosa PA14 PqsH transposon mutant assessed as extracellular level of HHQ at 250 uM after 16 hrs.
Assay [3] deals with T1, 2-heptyl-4(1H)-quinolone synthase PqsD (Pseudomonas aeruginosa). Put plainly: Binding affinity to Pseudomonas aeruginosa recombinant his6-tagged PqsD expressed in Escherichia coli BL21 (lambdaDE3) at 250 to 500 uM by SPR analysis.
In assay [4] the target is T2, 2-heptyl-4(1H)-quinolone synthase PqsD (Pseudomonas aeruginosa, UniProt A0A0C7ACN7).
T2 sequence (A0A0C7ACN7 whole entry): T1 sequence (whole entry)
Put plainly: Inhibition of Pseudomonas aeruginosa recombinant PqsD expressed in Escherichia coli BL21 (lambdaDE3) using ACoA/beta-ketodecanoic acid as substrate after 10 mins.

Assay [5] deals with T1, 2-heptyl-4(1H)-quinolone synthase PqsD (Pseudomonas aeruginosa). Put plainly: Binding affinity to Pseudomonas aeruginosa recombinant his6-tagged PqsD expressed in Escherichia coli BL21 (lambdaDE3) using AcoA as substrate at 250 to 500 uM incubated for 40 mins prior to compound addition followed by wash out for 30 mins by SPR analysis. Background: In SPR one partner is held on a chip, and binding of the other changes the refractive index at the surface.

The test system of assay [6] is Pseudomonas aeruginosa PA14. Put plainly: Inhibition of Pseudomonas aeruginosa PA14 PqsH transposon mutant assessed as extracellular level of HHQ after 16 hrs.
In assay [7] the test system is Pseudomonas aeruginosa PA14. Put plainly: Inhibition of Pseudomonas aeruginosa PA14 PqsH transposon mutant assessed as extracellular level of HHQ at 500 uM after 16 hrs.

Active and inactive are the calls of the source. No cut-off for these calls is given here. Where only a bound is given, the exact number is not on record here.

`O=C(O)/C=C/c1ccsc1`: the inhibition in assay [1] is 12%; in assay [2], below 10%. For `COC(=O)CCc1ccc(O)cc1`, the inhibition in assay [1] was below 10%.

For the compound `COC(=O)CCc1ccc([N+](=O)[O-])cc1`, the inhibition in assay [1] is below 10%.

On to `O=C(O)/C=C/c1ccoc1`, for which the inhibition in assay [1] is 12%.

For `O=C(CCc1ccc(O)c(O)c1)OCc1ccccc1`, in assay [2], the inhibition is below 10%. Also, the result in assay [3] was Active. In addition, the 50% inhibitory concentration (IC50) in assay [4] was determined as 5.9 µM. In the case of `COC(=O)CCc1ccc(C)cc1`, the inhibition in assay [1] is below 10%.

`COC(=O)/C=C/c1ccccc1`: in assay [1], the inhibition is below 10%. The result in assay [5] was inactive.

`COC(=O)Cc1ccc(O)c(O)c1`: the half-inhibitory concentration (IC50) in assay [4] worked out at 23 µM. In addition, the Activity in assay [6] is 24 µM. Taken in the same sequence, the figures for `CCOC(=O)CCc1ccc(O)c(O)c1` were 14 µM and 17 µM.

`O=C(O)/C=C/c1ccc(F)c(F)c1`: the inhibition in assay [1] was 18%. Consider `COC(=O)CCc1ccc(N)cc1`, for which the inhibition in assay [1] is below 10%. On to `COC(=O)/C=C/c1ccc(O)c(O)c1` [METHYLCAFFEATE], for which, in assay [4], the IC50 was 51 µM. In assay [6], the Activity came out at 31 µM. Also, the outcome in assay [5] was inactive. Turning to `O=C(O)/C=C/c1ccccc1`, the results for the inhibition in assay [1] and in assay [2] were 33% and below 10%, respectively.

For `CC(C)OC(=O)CCc1ccc(O)c(O)c1`, the result in assay [3] was Active. The IC50 in assay [4] turned out to be 8.6 µM. For the same compound, the Activity in assay [6] was found to be 16 µM. With `O=C(O)/C=C/c1ccc(O)c(O)c1`, the figures for the inhibition in assay [1] and in assay [7] were 26% and 10%, respectively.

Turning to `COC(=O)CCc1ccc2c(c1)OCO2`, the values for the inhibition in assay [1] and in assay [2] were 37% and below 10%, respectively.

For `O=C(O)/C=C/c1ccc(O)cc1`, the inhibition in assay [1] was 30%; in assay [2], below 10%. In the case of `COc1cc(/C=C/C(=O)O)ccc1O`, the inhibition in assay [1] is below 10%.

Take `CNC(=O)CCc1ccc(O)c(O)c1`: the inhibition in assay [2] was below 10%. In assay [4], the IC50 was found to be 20 µM. With `COC(=O)CCCc1ccc(O)c(O)c1`, in assay [3], the outcome was Active. Also, the half-maximal inhibitory concentration (IC50) in assay [4] was 7.9 µM. The Activity in assay [6] came out at 18 µM.

Regarding `O=C(O)CCc1ccc(O)c(O)c1` [DIHYDROCAFFEIC ACID], the inhibition in assay [2] was below 10%. In addition, the IC50 in assay [4] turned out to be 27 µM. Turning to `O=C(O)/C=C/c1cccc(O)c1`, the inhibition in assay [1] is below 10%. Regarding `COC(=O)CCc1ccc(O)c(O)c1`, in assay [4], the concentration for half-maximal inhibition (IC50) stood at 23 µM. Moreover, the Activity in assay [6] stood at 17 µM.

As for `COC(=O)/C=C/c1ccc(O)cc1`, the inhibition in assay [1] was 22%; in assay [2], below 10%. Moreover, the result in assay [5] was inactive. Take `COC(=O)/C=C/c1ccc(F)c(F)c1`: the inhibition in assay [1] and in assay [2] was below 10% in each case.

The inhibition is the drop in the measured response relative to a control, in per cent. For orientation: IC50 means the midpoint of a concentration-inhibition curve.
